From ChEMBL document CHEMBL1201861, “Genomics of Drug Sensitity in Cancer screening data, Wellcome Trust Sanger Institute”

Tests used:
Test in all cases: cells
DJM-1 = assay type: functional, cell-based, Homo sapiens; settings: Homo sapiens, DJM-1;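 also: growth inhibition of human DJM-1 cells, read out by a cell viability assay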
Description: SANGER: Inhibition of human DJM-1 cell growth in a cell viability assay.

CTV-1 = assay type: functional, cell-based; settings: Homo sapiens;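 also: growth inhibition of the cell line, read out with a cell viability assay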
Description: SANGER: Inhibition of human CTV-1 cell growth in a cell viability assay.

NKM-1 = assay type: functional, cell-based; settings: Homo sapiens;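 also: growth inhibition of NKM-1 cells, read out with a cell viability assay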
Description: SANGER: Inhibition of human NKM-1 cell growth in a cell viability assay.

NCI-H510A = assay type: functional, cell-based; settings: Homo sapiens;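 also: growth inhibition of NCI-H510A cells, read out with a cell viability assay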
Description: SANGER: Inhibition of human NCI-H510A cell growth in a cell viability assay.

CCRF-CEM = assay type: functional, cell-based; settings: Homo sapiens;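 also: inhibition of CCRF-CEM cell growth, measured by a cell viability assay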
Description: SANGER: Inhibition of human CCRF-CEM cell growth in a cell viability assay.

OS-RC-2 = assay type: functional, cell-based, Homo sapiens; settings: Homo sapiens, OS-RC-2;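 also: growth inhibition of human OS-RC-2 cells, measured by a cell viability assay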
Description: SANGER: Inhibition of human OS-RC-2 cell growth in a cell viability assay.

NEC8 = assay type: functional, cell-based, Homo sapiens; settings: Homo sapiens, NEC8;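 also: growth inhibition of human NEC8 cells, read out by a cell viability assay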
Description: SANGER: Inhibition of human NEC8 cell growth in a cell viability assay.

TGW = assay type: functional, cell-based; settings: Homo sapiens;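 also: growth inhibition of human TGW cells, read out with a cell viability assay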
Description: SANGER: Inhibition of human TGW cell growth in a cell viability assay.

SK-N-FI = assay type: functional, cell-based, Homo sapiens; settings: Homo sapiens, SK-N-FI;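 also: cell viability assay measuring growth inhibition of human SK-N-FI cells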
Description: SANGER: Inhibition of human SK-N-FI cell growth in a cell viability assay.

BV-173 = assay type: functional, cell-based; settings: Homo sapiens
Description: SANGER: Inhibition of human BV-173 cell growth in a cell viability assay.

KURAMOCHI = assay type: functional, cell-based; settings: Homo sapiens;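 also: growth inhibition of KURAMOCHI cells, read out with a cell viability assay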
Description: SANGER: Inhibition of human KURAMOCHI cell growth in a cell viability assay.

IST-SL1 = assay type: functional, cell-based, Homo sapiens; settings: Homo sapiens, IST-SL1;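 also: growth inhibition of human IST-SL1 cells, read out with a cell viability assay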
Description: SANGER: Inhibition of human IST-SL1 cell growth in a cell viability assay.

CGTH-W-1 = assay type: functional, cell-based, Homo sapiens; settings: Homo sapiens, CGTH-W-1;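 also: growth inhibition of human CGTH-W-1 cells measured by cell viability assay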
Description: SANGER: Inhibition of human CGTH-W-1 cell growth in a cell viability assay.

COLO-684 = assay type: functional, cell-based; settings: Homo sapiens
Description: SANGER: Inhibition of human COLO-684 cell growth in a cell viability assay.

NB69 = assay type: functional, cell-based, Homo sapiens; settings: Homo sapiens, NB69;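 also: growth inhibition of NB69 cells, determined by a cell viability assay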
Description: SANGER: Inhibition of human NB69 cell growth in a cell viability assay.

SNU1 = assay type: functional, cell-based; settings: Homo sapiens;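 also: growth inhibition of human NCI-SNU-1 cells, measured with a cell viability assay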
Description: SANGER: Inhibition of human NCI-SNU-1 cell growth in a cell viability assay.

QIMR-WIL = assay type: functional, cell-based; settings: Homo sapiens;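 also: growth inhibition of QIMR-WIL cells, read out with a cell viability assay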
Description: SANGER: Inhibition of human QIMR-WIL cell growth in a cell viability assay.

HDLM-2 = assay type: functional, cell-based; settings: Homo sapiens;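 also: cell viability assay measuring suppression of HDLM-2 proliferation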
Description: SANGER: Inhibition of human HDLM-2 cell growth in a cell viability assay.

OMC-1 = assay type: functional, cell-based, Homo sapiens; settings: Homo sapiens, OMC-1;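 also: growth inhibition of the OMC-1 cell line, measured by a cell viability assay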
Description: SANGER: Inhibition of human OMC-1 cell growth in a cell viability assay.

EOL1 = assay type: functional, cell-based; settings: Homo sapiens;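 also: growth inhibition of EoL-1 cells, read out by a cell viability assay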
Description: SANGER: Inhibition of human EoL-1-cell cell growth in a cell viability assay.

COLO-800 = assay type: functional, cell-based, Homo sapiens; settings: Homo sapiens, COLO-800;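 also: growth inhibition of COLO-800 cells, read out with a cell viability assay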
Description: SANGER: Inhibition of human COLO-800 cell growth in a cell viability assay.

TE-5 = assay type: functional, cell-based, Homo sapiens; settings: Homo sapiens, TE-5;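 also: inhibition of cell growth, read out by a cell viability assay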
Description: SANGER: Inhibition of human TE-5 cell growth in a cell viability assay.

HAL-01 = assay type: functional, cell-based; settings: Homo sapiens;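 also: growth inhibition of human HAL-01 cells, read out with a cell viability assay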
Description: SANGER: Inhibition of human HAL-01 cell growth in a cell viability assay.

KY821 = assay type: functional, cell-based; settings: Homo sapiens;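 also: growth inhibition of human KY821 cells, read out by a cell viability assay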
NCI-H1395 = assay type: functional, cell-based, Homo sapiens; settings: Homo sapiens, NCI-H1395;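 also: cell viability assay read-out quantifying reduced proliferation of human NCI-H1395 cells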
Description: SANGER: Inhibition of human NCI-H1395 cell growth in a cell viability assay.

no-11 = assay type: functional, cell-based, Homo sapiens; settings: Homo sapiens;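 also: growth inhibition of human NO-11 cells, read out with a cell viability assay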
Description: SANGER: Inhibition of human no-11 cell growth in a cell viability assay.

DSH1 = assay type: functional, cell-based, Homo sapiens; settings: Homo sapiens, DSH1;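 also: growth inhibition of human DSH1 cells, measured with a cell viability readout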
Description: SANGER: Inhibition of human DSH1 cell growth in a cell viability assay.

EW-1 = assay type: functional, cell-based, Homo sapiens; settings: Homo sapiens, EW-1;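 also: growth inhibition of the human EW-1 cell line, read out by a cell viability assay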
Description: SANGER: Inhibition of human EW-1 cell growth in a cell viability assay.

HCC 2998 = assay type: functional, cell-based, Homo sapiens; settings: Homo sapiens, HCC 2998;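 also: growth inhibition of human HCC2998 cells, measured with a cell viability read-out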
Description: SANGER: Inhibition of human HCC2998 cell growth in a cell viability assay.

Row | Structure (SMILES) | IC50 (DJM-1) | IC50 (CTV-1) | IC50 (NKM-1) | IC50 (NCI-H510A) | IC50 (CCRF-CEM) | IC50 (OS-RC-2) | IC50 (NEC8) | IC50 (TGW) | IC50 (SK-N-FI) | IC50 (BV-173) | IC50 (IST-SL1) | IC50 (CGTH-W-1) | IC50 (COLO-684) | IC50 (NB69) | IC50 (SNU1) | IC50 (QIMR-WIL) | IC50 (HDLM-2) | IC50 (OMC-1) | IC50 (EOL1) | IC50 (COLO-800) | also measured
1 | CO[C@H]1C[C@@H]2CC[C@@H](C)[C@@](O)(O2)C(=O)C(=O)N2CCCC[C@H]2C(=O)O[C@H]([C@H](C)C[C@@H]2CC[C@@H](O)[C@H](OC)C2)CC(=O)[C@H](C)/C=C(\C)[C@@H](O)[C@@H](OC)C(=O)[C@H](C)C[C@H](C)/C=C/C=C/C=C/1C [SIROLIMUS] | > 100 nM | > 100 nM | > 100 nM | > 100 nM | 4.94 nM | 0.652 nM | > 100 nM | > 100 nM | > 100 nM | 84 nM | > 100 nM | > 100 nM | 39.8 nM | > 100 nM | > 100 nM | 11.8 nM | > 100 nM | > 100 nM | > 100 nM | > 100 nM | IC50 (KURAMOCHI): > 100 nM; IC50 (TE-5): > 100 nM; IC50 (HAL-01): > 100 nM; IC50 (KY821): > 100 nM; IC50 (NCI-H1395): > 100 nM; IC50 (no-11): 83.2 nM; IC50 (DSH1): > 100 nM; IC50 (EW-1): 2.17 nM
2 | CCC(=O)N1CCN(c2ccc(-n3c(=O)ccc4cnc5ccc(-c6cnc7ccccc7c6)cc5c43)cc2C(F)(F)F)CC1 [TORIN1] | > 1200 nM | 65.5 nM | 987 nM | 772 nM | 33.7 nM | 23.2 nM | 562 nM | 375 nM | > 1200 nM | 22 nM | 858 nM | 184 nM | 45.6 nM | 322 nM | > 1200 nM | 80.6 nM | > 1200 nM | 78 nM | 30 nM | > 1200 nM | IC50 (KURAMOCHI): 24.1 nM; IC50 (TE-5): 38.5 nM; IC50 (HAL-01): 76.6 nM; IC50 (KY821): 220 nM; IC50 (NCI-H1395): > 1200 nM; IC50 (no-11): 14 nM; IC50 (DSH1): 71.7 nM; IC50 (EW-1): 7.49 nM
3 | CNC(=O)c1cc(Oc2ccc(NC(=O)Nc3ccc(Cl)c(C(F)(F)F)c3)cc2)ccn1 [SORAFENIB] | > 4000 nM | > 4000 nM | 74.2 nM | > 4000 nM | > 4000 nM | > 4000 nM | > 4000 nM | > 4000 nM | > 4000 nM | > 4000 nM | > 4000 nM | 250 nM | > 4000 nM | > 4000 nM | 2320 nM | > 4000 nM | > 4000 nM | > 4000 nM | > 4000 nM | > 4000 nM | IC50 (HCC 2998): 888 nM; IC50 (KURAMOCHI): > 4000 nM; IC50 (TE-5): 3130 nM; IC50 (HAL-01): > 4000 nM; IC50 (KY821): > 4000 nM; IC50 (NCI-H1395): > 4000 nM; IC50 (no-11): > 4000 nM; IC50 (DSH1): > 4000 nM; IC50 (EW-1): > 4000 nM
4 | CS(=O)(=O)CCNCc1ccc(-c2ccc3ncnc(Nc4ccc(OCc5cccc(F)c5)c(Cl)c4)c3c2)o1 [LAPATINIB] | > 2000 nM | > 2000 nM | > 2000 nM | > 2000 nM | > 2000 nM | 1990 nM | > 2000 nM | > 2000 nM | > 2000 nM | > 2000 nM | > 2000 nM | > 2000 nM | > 2000 nM | > 2000 nM | > 2000 nM | > 2000 nM | > 2000 nM | > 2000 nM | > 2000 nM | > 2000 nM | IC50 (HCC 2998): > 2000 nM; IC50 (KURAMOCHI): > 2000 nM; IC50 (TE-5): > 2000 nM; IC50 (HAL-01): > 2000 nM; IC50 (KY821): > 2000 nM; IC50 (NCI-H1395): > 2000 nM; IC50 (no-11): > 2000 nM; IC50 (DSH1): 94 nM; IC50 (EW-1): > 2000 nM
5 | CC1=C2C[C@H]3[C@@H](CC=C4C[C@@H](O)CC[C@@]43C)[C@@H]2CC[C@]12O[C@@H]1C[C@H](C)CN[C@H]1[C@H]2C [CYCLOPAMINE] | > 16000 nM | > 16000 nM | > 16000 nM | > 16000 nM | > 16000 nM | 5870 nM | > 16000 nM | > 16000 nM | > 16000 nM | > 16000 nM | > 16000 nM | > 16000 nM | > 16000 nM | > 16000 nM | > 16000 nM | > 16000 nM | > 16000 nM | > 16000 nM | > 16000 nM | > 16000 nM | IC50 (HCC 2998): > 16000 nM; IC50 (TE-5): > 16000 nM; IC50 (HAL-01): > 16000 nM; IC50 (KY821): > 16000 nM; IC50 (NCI-H1395): > 16000 nM; IC50 (no-11): > 16000 nM; IC50 (DSH1): > 16000 nM; IC50 (EW-1): > 16000 nM
